Molecular target: T1, crosslinked smooth muscle actomyosin (chicken gizzard smooth muscle myosin subfragment-1 crosslinked to cardiac or skeletal actin) (Gallus gallus, UniProt P10587)
T1 construct: chicken gizzard smooth muscle myosin subfragment-1; from tissue; host or cells: chicken gizzard
Test: Lead optimization pyruvate kinase/horseradish peroxidase/pyruvate oxidase-coupled ATPase assay (compound dose response)
Format: biochemical
Conditions: read-out: IC50 Arithmetic Mean
Method: Screening assays were performed using a pyruvate kinase and lactate dehydrogenase-coupled ATPase assay containing the following reagents: Potassium PIPES (50 mM), MgCl2 (3 mM), KCl (100 mM), ATP (0.15 mM), DTT (1 mM), BSA (0.1 mg/ml), NADH (0.5 mM), PEP (1.5 mM), pyruvate kinase (4 U/ml), lactate dehydrogenase (8 U/ml), and antifoam (50 ppm) (concentrations expressed are final assay concentrations). The pH was adjusted to 6.80 at 22° C. by addition of potassium hydroxide. Lead optimization assays were performed with a more sensitive pyruvate kinase/horseradish peroxidase/pyruvate oxidase-coupled ATPase assay containing the following reagents: Potassium PIPES (12 mM), MgCl2 (2 mM), KCl (100 mM), ATP (0.15 mM), BSA (0.05 mg/ml), potassium phosphate (2 mM), amplex red (0.1 mM), PEP (0.1 mM), pyruvate kinase (4 U/ml), horseradish peroxidase (0.5 U/ml), pyruvate oxidase (0.5 U/ml), and antifoam (50 ppm) (concentrations expressed are final assay concentrations). The pH was adjusted to 7.00 at 22° C. by addition of potassium hydroxide.
The protein components specific to this assay are chicken gizzard smooth muscle myosin subfragment-1 that has been chemically crosslinked to either cardiac or skeletal actin using an excess of 1-Ethyl-3-[3-dimethylaminopropyl]carbodiimide hydrochloride and N-hydroxysuccinimide. The exact concentration of the crosslinked smooth muscle myosin in the assay is determined empirically, by titration to achieve a desired rate of ATP hydrolysis. The concentration varies between protein preparations due to variations in the fraction of active molecules in each preparation.
Compound dose response assays are performed by first preparing a dilution series of test compound, each with an assay mixture containing potassium PIPES, MgCl2, KCl, ATP, BSA, potassium phosphate, amplex red, PEP, crosslinked smooth muscle actomyosin (subfragment-1), antifoam, and water. The assay is started by adding an equal volume of solution containing potassium Pipes, MgCl2, KCl, BSA, potassium phosphate, pyruvate kinase, horseradish peroxidase, pyruvate oxidase, antifoam, and water. ATP hydrolysis is monitored by measuring the fluorescence of amplex red (excitation at 480 nm, emission at 615 nm). The resulting dose response curve is fit by the 4 parameter equation y=Bottom+((Top-Bottom)/(1+((IC50/X)^Hill))). The IC50 is defined as the concentration at which ATPase activity is midway between the top and bottom of the dose response curve.

IC50	Structure (SMILES)
0.808 µM	CCc1ccc(NC(=O)OCC2(C(=O)NCc3ccccc3Cl)CCN(C(=O)C3CCNCC3)CC2)cc1 [N-[(2-chlorophenyl)methyl](4-{[N-(4-ethylphenyl)carbamoyloxy]methyl}-1-(4-piperidylcarbonyl)(4-piperidyl))carboxamide]
0.277 µM	NCC(=O)N1CCC(COC(=O)Nc2ccc(-c3ccccc3)cc2)(C(=O)NCc2ccccc2Cl)CC1 [(1-(2-aminoacetyl)-4-{[N-(4-phenylphenyl)carbamoyloxy]methyl}(4-piperidyl))-N-[(2-chlorophenyl)methyl]carboxamide]
2.44 µM	CCc1ccc(NC(=O)OCCC2(C(=O)NCc3ccccc3Cl)CCN(C(=O)CN)CC2)cc1 [(1-(2-aminoacetyl)-4-{2-[N-(4-ethylphenyl)carbamoyloxy]ethyl}(4-piperidyl))-N-[(2-chlorophenyl)methyl]carboxamide]
0.223 µM	CCc1ccc(NC(=O)OCCN(CCCCNC(=O)CN)C(=O)NCc2ccccc2Cl)cc1 [2-amino-N-[4-({[(2-chlorophenyl)methyl]amino}-N-{2-[N-(4-ethylphenyl)carbamoyloxy]ethyl}carbonylamino)butyl]acetamide]
0.37 µM	NCC(=O)N1CCC(COC(=O)Nc2ccc(C(F)(F)F)cc2)(C(=O)NCc2cccc(Cl)c2F)CC1 [[(1-(2-aminoacetyl)-4-{N-[(3-chloro-2-fluorophenyl)methyl]carbamoyl}(4-piperidyl))methoxy]-N-[4-(trifluoromethyl)phenyl]carboxamide]
0.67 µM	CCc1ccc(NC(=O)OCC2(C(=O)NCc3ccccc3Cl)CCN(C(=O)C(C)(C)N)CC2)cc1 [(1-(2-amino-2-methylpropanoyl)-4-{[N-(4-ethylphenyl)carbamoyloxy]methyl}(4-piperidyl))-N-[(2-chlorophenyl)methyl]carboxamide]
0.188 µM	CCc1ccc(NC(=O)OCCN(CCCNC(=O)CN)C(=O)NCc2ccccc2Cl)cc1 [2-amino-N-[3-({[(2-chlorophenyl)methyl]amino}-N-{2-[N-(4-ethylphenyl)carbamoyloxy]ethyl}carbonylamino)propyl]acetamide]
2.77 µM	CCc1ccc(NC(=O)OCC2(C(=O)NCc3ccccc3Cl)CCN(C(=O)C3CCCCC3)CC2)cc1 [N-[(2-chlorophenyl)methyl](1-(cyclohexylcarbonyl)-4-{[N-(4-ethylphenyl)carbamoyloxy]methyl}(4-piperidyl))carboxamide]
0.496 µM	CCc1ccc(NC(=O)OCC2(C(=O)NCc3ccccc3Cl)CCN(S(C)(=O)=O)CC2)cc1 [N-[(2-chlorophenyl)methyl](4-{[N-(4-ethylphenyl)carbamoyloxy]methyl}-1-(methylsulfonyl)(4-piperidyl))carboxamide]
0.307 µM	CCc1ccc(NC(=O)OCC2(C(=O)NCc3ccccc3F)CCN(C(=O)CN)CC2)cc1 [(1-(2-aminoacetyl)-4-{[N-(4-ethylphenyl)carbamoyloxy]methyl}(4-piperidyl))-N-[(2-fluorophenyl)methyl]carboxamide]
0.083 µM	CCc1ccc(NC(=O)OCC2(C(=O)NCc3cccc(Cl)c3C)CCN(C(=O)CN)CC2)cc1 [[(1-(2-aminoacetyl)-4-{N-[(3-chloro-2-methylphenyl)methyl]carbamoyl}(4-piperidyl))methoxy]-N-(4-ethylphenyl)carboxamide]
0.083 µM	NCC(=O)N1CCC(COC(=O)Nc2ccc3ccccc3c2)(C(=O)NCc2ccccc2Cl)CC1 [{1-(2-aminoacetyl)-4-[(N-(2-naphthyl)carbamoyloxy)methyl](4-piperidyl)}-N-[(2-chlorophenyl)methyl]carboxamide]
15 µM	CN(CCN(CCOC(=O)Nc1ccc(C(F)(F)F)cc1)C(=O)NCc1ccccc1Cl)C(=O)CN [2-amino-N-{2-[{[(2-chlorophenyl)methyl]amino}-N-(2-{N-[4-(trifluoromethyl)phenyl]carbamoyloxy}ethyl)carbonylamino]ethyl}-N-methylacetamide]
7.78 µM	N#Cc1ccc(NC(=O)OCC2(C(=O)NCc3ccccc3Cl)CCN(C(=O)CN)CC2)cc1 [(1-(2-aminoacetyl)-4-{[N-(4-cyanophenyl)carbamoyloxy]methyl}(4-piperidyl))-N-[(2-chlorophenyl)methyl]carboxamide]
0.492 µM	CCc1ccc(NC(=O)OCC2(C(=O)NCc3ccccc3Cl)CCN(C(=O)CCCO)CC2)cc1 [N-[(2-chlorophenyl)methyl](4-{[N-(4-ethylphenyl)carbamoyloxy]methyl}-1-(4-hydroxybutanoyl)(4-piperidyl))carboxamide]
15.2 µM	O=C(Nc1ccccc1)OCC1(C(=O)NCc2ccccc2Cl)CCOCC1 [N-[(2-chlorophenyl)methyl]{4-[(N-phenylcarbamoyloxy)methyl](2H-3,4,5,6-tetrahydropyran-4-yl)}carboxamide]
0.487 µM	CCc1ccc(NC(=O)OCCN(CCCCCN)C(=O)NCc2ccccc2Cl)cc1 [N-(5-aminopentyl){[(2-chlorophenyl)methyl]amino}-N-{2-[N-(4-ethylphenyl)carbamoyloxy]ethyl}carboxamide]
4.95 µM	CCc1ccc(NC(=O)OCC2(C(=O)NCc3ccccc3Cl)CCN(C(=O)c3ccc(C(=O)c4ccccc4)cc3)CC2)cc1 [N-[(2-chlorophenyl)methyl](4-{[N-(4-ethylphenyl)carbamoyloxy]methyl}-1-{[4-(phenylcarbonyl)phenyl]carbonyl}(4-piperidyl))carboxamide]
0.255 µM	CCc1ccc(NC(=O)OCC2(C(=O)NCc3ccccc3Cl)CCN(C(=O)[C@@H](C)N)CC2)cc1 [(1-((2R)-2-aminopropanoyl)-4-{[N-(4-ethylphenyl)carbamoyloxy]methyl}(4-piperidyl))-N-[(2-chlorophenyl)methyl]carboxamide]
0.164 µM	CCc1ccc(NC(=O)OCC2(C(=O)NCc3cccc(F)c3F)CCN(C(=O)CN)CC2)cc1 [[(1-(2-aminoacetyl)-4-{N-[(2,3-difluorophenyl)methyl]carbamoyl}(4-piperidyl))methoxy]-N-(4-ethylphenyl)carboxamide]
0.695 µM	CCc1ccc(NC(=O)OCC2(C(=O)NCc3ccccc3Cl)CCN(C(=O)c3cccnc3)CC2)cc1 [N-[(2-chlorophenyl)methyl](4-{[N-(4-ethylphenyl)carbamoyloxy]methyl}-1-(3-pyridylcarbonyl)(4-piperidyl))carboxamide]
0.143 µM	CCc1ccc(NC(=O)OCC2(C(=O)NCc3ccccc3Cl)CCN(C(=O)C(N)CO)CC2)cc1 (stereo not shown) [(1-(2-amino-3-hydroxypropanoyl)-4-{[N-(4-ethylphenyl)carbamoyloxy]methyl}(4-piperidyl))-N-[(2-chlorophenyl)methyl]carboxamide]
0.904 µM	CCc1ccc(NC(=O)OCC2(C(=O)NCc3ccccc3C#N)CCN(C(=O)CN)CC2)cc1 [(1-(2-aminoacetyl)-4-{[N-(4-ethylphenyl)carbamoyloxy]methyl}(4-piperidyl))-N-[(2-cyanophenyl)methyl]carboxamide]
0.191 µM	Cc1ccc(NC(=O)OCC2(C(=O)NCc3ccccc3Cl)CCN(C(=O)CN)CC2)cc1 [(1-(2-aminoacetyl)-4-{[N-(4-methylphenyl)carbamoyloxy]methyl}(4-piperidyl))-N-[(2-chlorophenyl)methyl]carboxamide]
18.2 µM	CCc1ccc(NC(=O)NCC2(C(=O)NCc3ccccc3Cl)CCNCC2)cc1 [N-[(2-chlorophenyl)methyl][4-({[(4-ethylphenyl)amino]carbonylamino}methyl)(4-piperidyl)]carboxamide]

Structure (SMILES)	IC50
CCc1ccc(NC(=O)OCCN(CCN(C)C(=O)OC(C)(C)C)C(=O)NCc2ccccc2Cl)cc1 [(tert-butoxy)-N-[2-({[(2-chlorophenyl)methyl]amino}-N-{2-[N-(4-ethylphenyl)carbamoyloxy]ethyl}carbonylamino)ethyl]-N-methylcarboxamide]	18.2 µM
CCc1ccc(NC(=O)OCC2(C(=O)NCc3cccc(F)c3F)CCN(C(=O)CNC(=O)OC(C)(C)C)CC2)cc1 [[(4-{N-[(2,3-difluorophenyl)methyl]carbamoyl}-1-{2-[(tert-butoxy)carbonylamino]acetyl}(4-piperidyl))methoxy]-N-(4-ethylphenyl)carboxamide]	1.59 µM
CCc1ccc(NC(=O)N(CCNC(=O)OC(C)(C)C)CC2(C(=O)NCc3ccccc3Cl)CCN(C(=O)CNC(=O)OC(C)(C)C)CC2)cc1 [(tert-butoxy)-N-(2-{N-[(1-{2-[(tert-butoxy)carbonylamino]acetyl}-4-{N-[(2-chlorophenyl)methyl]carbamoyl}(4-piperidyl))methyl][(4-ethylphenyl)amino]carbonylamino}ethyl)carboxamide]	19.5 µM
